Target: T1, glucocerebrosidase (Homo sapiens, UniProt P04062)
T1 sequence (P04062 40-536): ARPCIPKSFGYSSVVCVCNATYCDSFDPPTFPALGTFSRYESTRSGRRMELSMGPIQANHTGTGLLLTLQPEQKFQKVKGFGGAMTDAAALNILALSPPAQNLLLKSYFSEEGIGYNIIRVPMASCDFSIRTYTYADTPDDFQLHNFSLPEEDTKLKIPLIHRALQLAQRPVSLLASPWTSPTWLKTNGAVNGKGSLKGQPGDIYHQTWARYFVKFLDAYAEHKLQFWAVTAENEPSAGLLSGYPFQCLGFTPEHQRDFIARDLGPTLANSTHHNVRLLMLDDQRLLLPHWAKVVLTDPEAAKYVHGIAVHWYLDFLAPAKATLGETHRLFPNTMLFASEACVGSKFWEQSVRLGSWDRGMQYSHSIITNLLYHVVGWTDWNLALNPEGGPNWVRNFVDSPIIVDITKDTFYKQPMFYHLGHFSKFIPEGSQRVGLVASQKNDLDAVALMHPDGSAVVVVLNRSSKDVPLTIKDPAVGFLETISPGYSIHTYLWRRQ
Assay: Glucocerebrosidase activity assay with blue substrate (4MU-Glc)
Format: biochemical
Description: Example 2—Glucocerebrosidase Activity Assay with Blue Substrate
The compounds in DMSO solution 0.5 μL/well were transferred to a black 96-well plate (the final titration was 24 nM to 50 μM, 12 concentrations, 2× dilution). 33.5 μL enzyme solution (7.5 nM final concentration) was transferred to the wells. After 5 min of incubation at room temperature, the enzyme reaction was initiated by the addition of 33 μL/well blue substrate. Final concentration of the blue substrate (4MU-Glc) was 1.5 mM. The blue substrate reaction was terminated by the addition of 33 μL/well stop solution (1 M NaOH and 1 M glycine mixture, pH 10) after 30 min of incubation at 37° C. The fluorescence was then measured in the Biotek Synergy H1 multi-mode plate reader with Ex=365 nm and Em=440 nm.
Additional compounds were synthesized and tested for glucocerebrosidase modulatory activity as described in Example 1 and Example 2.

[1] = Table 1, 7.5 nM enzyme, 1.5 mM 4MU-Glc, 30 min at 37° C.
[2] = Table 1, 7.5 nM enzyme, 1.5 mM 4MU-Glc, 30 min at 37° C., titration 24 nM to 50 μM
[3] = Table 2, additional compounds, tested as described in Example 2

Emax [1]	AC50 [2]	AC50 [3]	Emax [3]	SMILES
191%	8.91 µM	–	–	Cc1nn(Cc2ccccc2)c(C)c1Nc1nc(-c2cccnc2)nc2ccccc12 [Compound 70]
346%	15.8 µM	–	–	CN(CCOc1ccccc1)c1cc(N2CCOCC2)nc(-c2cccnc2)n1 [Compound 71]
927%	6.31 µM	–	–	CN(CCOc1ccccc1)c1nc(-c2cccnc2)nc2c1ccn2C [Compound 72]
330%	5.62 µM	–	–	CN(CCOc1ccccc1)c1nc(-c2cccnc2)nc2c1COC2 [Compound 73]
194%	10 µM	–	–	Cc1nn(Cc2ccccc2)c(C)c1N(C)c1nc(-c2cccnc2)nc2ccccc12 [Compound 74]
115%	2 µM	–	–	CN(CC1CCc2ccccc2C1)c1nc(-c2cccnc2)nc2ccccc12 (centres unmarked) [Compound 75]
255%	4.47 µM	–	–	COC(=O)c1ccc(OCCN(C)c2nc(-c3cccnc3)nc3ccccc23)cc1 [Compound 76]
432%	5.01 µM	–	–	COC(=O)c1cccc(OCCN(C)c2nc(-c3cccnc3)nc3ccccc23)c1 [Compound 77]
425%	1.56 µM	–	–	CN(CCOc1ccccc1)c1nc(-c2cccnc2)nc2c1cnn2C [Compound 78]
252%	12.6 µM	–	–	CN(CCOc1ccc(C(=O)O)cc1)c1nc(-c2cccnc2)nc2ccccc12 [Compound 79]
442%	15.8 µM	–	–	CN(CCOc1cccc(C(=O)O)c1)c1nc(-c2cccnc2)nc2ccccc12 [Compound 80]
280%	3.16 µM	–	–	CN(CCOc1ccccc1)c1nc(-c2ccnc3ccccc23)nc2ccccc12 [Compound 81]
501%	1.12 µM	–	–	CN(CC1Cc2ccccc2O1)c1nc(-c2cccnc2)nc2ccccc12 (centres unmarked) [Compound 82]
230%	3.98 µM	–	–	CN(CCOc1ccc(C(=O)ON2C(=O)CCC2=O)cc1)c1nc(-c2cccnc2)nc2ccccc12 [Compound 83]
457%	4.47 µM	–	–	CN(CCOc1cccc(C(=O)ON2C(=O)CCC2=O)c1)c1nc(-c2cccnc2)nc2ccccc12 [Compound 84]
460%	2.24 µM	–	–	CN(CCOc1ccccc1)c1cc(-c2cccnc2)nc(-c2cccnc2)n1 [Compound 85]
–	15.8 µM	–	–	CN(CCOc1cccc(CCO)c1)c1nc(-c2cccnc2)nc2ccccc12 [Compound 86]
173%	10 µM	–	–	Cn1ncc2c(NCC3CCc4ccccc4O3)nc(-c3cccnc3)nc21 (centres unmarked) [Compound 87]
142%	5.01 µM	–	–	CN(c1nc(-c2cccnc2)nc2c1cnn2C)C1CCCN(c2ccccc2)C1 (centres unmarked) [Compound 88]
660%	4.47 µM	–	–	CN(Cc1cc2ccccc2o1)c1nc(-c2cccnc2)nc2c1cnn2C [Compound 89]

Emax [1]	AC50 [2]	AC50 [3]	Emax [3]	SMILES
908%	7.94 µM	–	–	COC(=O)Cc1cccc(OCCN(C)c2nc(-c3cccnc3)nc3c2cnn3C)c1 [Compound 90]
322%	44.7 µM	–	–	Cn1ncc2c(NCCOC3CCCCC3)nc(-c3cccnc3)nc21 [Compound 91]
790%	35.5 µM	–	–	CN(CCOc1ccccc1)c1nc(-c2cccnc2)nc2c1ncn2C [Compound 92]
270%	4.47 µM	–	–	CN(CCOc1ccccc1)c1nc(-c2cccnc2)nc2scnc12 [Compound 93]
–	14.1 µM	–	–	COC(=O)Cc1cccc(OCCN(C)c2nc(-c3cccnc3)nc3ncccc23)c1 [Compound 94]
721%	4.47 µM	–	–	COC(=O)Cc1cccc(OCCN(C)c2nc(-c3cccnc3)nc3ccccc23)c1 [Compound 95]
583%	7.94 µM	–	–	CN(CCOc1cccc(CC(=O)ON2C(=O)CCC2=O)c1)c1nc(-c2cccnc2)nc2c1cnn2C [Compound 96]
531%	3.16 µM	–	–	CN(CCOc1ccccc1)c1nc(-c2cccnc2)nn2cccc12 [Compound 97]
140%	28.2 µM	–	–	CC(C)n1ncc2c(N(C)CCOc3ccccc3)nc(-c3cccnc3)nc21 [Compound 98]
208%	0.71 µM	–	–	CCn1ncc2c(N(C)CCOc3ccccc3)nc(-c3cccnc3)nc21 [Compound 99]
833%	5.62 µM	–	–	Cn1ncc2c(N3CC[C@@H](Oc4ccccc4)C3)nc(-c3cccnc3)nc21 [Compound 100]
197%	79.4 µM	–	–	CN(CCN1CCc2ccccc2C1)c1nc(-c2cccnc2)nc2c1cnn2C [Compound 101]
–	25.1 µM	–	–	CN(CCOC1CCCCC1)c1nc(-c2cccnc2)nc2c1cnn2C [Compound 102]
371%	3.16 µM	–	–	CN(CCOc1ccc2c(c1)CCCC2)c1nc(-c2cccnc2)nc2c1cnn2C [Compound 103]
425%	6.31 µM	–	–	CN(Cc1ccc2ccccc2n1)c1nc(-c2cccnc2)nc2c1cnn2C [Compound 104]
662%	6.31 µM	–	–	CN(CC1CCc2ccccc2O1)c1nc(-c2cccnc2)nc2c1cnn2C (centres unmarked) [Compound 105]
250%	1.12 µM	–	–	CCn1ncc2c(N(C)C[C@H]3COc4ccccc4O3)nc(-c3cccnc3)nc21 [Compound 106]
400%	7.08 µM	–	–	CCn1ncc2c(N(C)Cc3ccc4c(c3)OCO4)nc(-c3cccnc3)nc21 [Compound 108]
475%	14.1 µM	–	–	CN(Cc1ccc2ncccc2c1)c1nc(-c2cccnc2)nc2c1cnn2C [Compound 109]
750%	7.94 µM	–	–	CCn1ncc2c(N(C)CCOc3ccc(CN)cc3)nc(-c3cccnc3)nc21 [Compound 110]

Emax [1]	AC50 [2]	AC50 [3]	Emax [3]	SMILES
675%	0.5 µM	–	–	CCn1ncc2c(N(C)CCOc3ccc(CNC(=O)CCCCCNC(=O)OC(C)(C)C)cc3)nc(-c3cccnc3)nc21 [Compound 111]
530%	3.55 µM	–	–	CCn1ncc2c(N(C)CCOc3ccc(CNC(=O)CCCCCN)cc3)nc(-c3cccnc3)nc21 [Compound 112]
–	–	12.6 µM	210%	Cn1ncc2c(N3CCC[C@H](C(=O)Nc4ccccc4)C3)nc(-c3cccnc3)nc21 [Compound 116]
–	–	14.1 µM	310%	Cn1ncc2c(N3CCC[C@@H](C(=O)Nc4ccccc4)C3)nc(-c3cccnc3)nc21 [Compound 117]
–	–	3.16 µM	105%	CCc1ccc(-c2nc(N(C)CCOc3ccc(C#N)cc3)c3cnn(CC)c3n2)cc1 [Compound 123]
–	–	6.31 µM	480%	CCc1ccc(-c2nc(N(C)CCOc3ccc(CN)cc3)c3cnn(CC)c3n2)cc1 [Compound 124]
–	–	6.31 µM	610%	CCn1ncc2c(N(C)CCOc3ccc(CNC(C)=O)cc3)nc(-c3cccnc3)nc21 [Compound 125]
–	–	0.2 µM	150%	CCCCCC(=O)NCc1ccc(OCCN(C)c2nc(-c3cccnc3)nc3c2cnn3CC)cc1 [Compound 126]
–	–	35.5 µM	325%	CN(CCC(=O)Nc1ccccc1)c1nc(-c2cccnc2)nc2ccccc12 [Compound 127]
–	–	44.7 µM	275%	CN(CCC(=O)Nc1ccccc1)c1nc(-c2cccnc2)nc2c1cnn2C [Compound 128]
–	–	1.67 µM	–	CN(C)c1ccc2c(-c3ccc(C(=O)NCCOCCOCCOCCOCCC(=O)NCCCCCC(=O)Nc4ccc(-c5nc(N(C)CCOc6ccccc6)c6ccccc6n5)cc4)cc3C(=O)[O-])c3ccc(=[N+](C)C)cc-3oc2c1 [Compound 135]
–	–	2 µM	138%	CCn1ncc2c(N(C)CCOc3ccc(C#N)cc3)nc(-c3ccsc3)nc21 [Compound 136]
–	–	2 µM	200%	CCn1ncc2c(N(C)CCOc3ccc(CN)cc3)nc(-c3ccsc3)nc21 [Compound 137]
–	–	10 µM	875%	CN(CCOc1ccc2nccnc2c1)c1nc(-c2cccnc2)nc2ccccc12 [Compound 138]
–	–	6.31 µM	980%	CCn1ncc2c(N(C)CCOc3ccc(CNC(=O)CNC(=O)OC(C)(C)C)cc3)nc(-c3cccnc3)nc21 [Compound 139]
–	–	2.82 µM	980%	CCn1ncc2c(N(C)CCOc3ccc(CNC(=O)CCNC(=O)OC(C)(C)C)cc3)nc(-c3cccnc3)nc21 [Compound 140]
–	–	0.5 µM	800%	CCn1ncc2c(N(C)CCOc3ccc(CNC(=O)CCCCNC(=O)OC(C)(C)C)cc3)nc(-c3cccnc3)nc21 [Compound 141]
–	–	3.16 µM	700%	CCc1cncc(-c2nc(N(C)CCOc3ccccc3)c3ccccc3n2)c1 [Compound 144]
–	–	1.6 µM	185%	CN(CCOc1ccccc1)c1nc(-c2cnc3ccccc3c2)nc2ccccc12 [Compound 145]
–	–	1.41 µM	940%	CCn1ncc2c(N(C)CCOc3ccc(CNC(=O)CCCNC(=O)OC(C)(C)C)cc3)nc(-c3cccnc3)nc21 [Compound 146]

— US12291533B2, “Substituted fused pyrimidine compounds and uses thereof” (Northwestern University, priority 2017, dated 2025)
